Measurements reported in patent publication US11299473B2, “Benzimidazole and indole compounds and uses thereof” (Incyte Corporation, priority 2018, dated 2022).
pKi: −log10 of the molar value.

Molecular target: active HPK1 (SignalChem M23-11G) (Homo sapiens (Human), UniProt Q92918)
Experiment: HPK1 Kinase Binding Assay
Conditions: LanthaScreen tracer 222 / Eu-Anti GST antibody, one hour incubation at 25° C.
Experimental: A stock solution of 1 mM test compound was prepared in DMSO. The compound plate was prepared by 3-fold and 11-point serial dilutions. 0.1 μL of the compound in DMSO was transferred from the compound plate to the white 384 well polystyrene plates. The assay buffer contained 50 mM HEPES, pH 7.5, 0.01% Tween-20, 5 mM MgCl2, 0.01% BSA, and 5 mM DTT. 5 μL of 4 nM active HPK1 (SignalChem M23-11G) prepared in the buffer was added to the plate. The enzyme concentration given was based on the given stock concentration reported by the vender. 5 μl of 18 nM tracer 222 (ThermoFisher PV6121) and 4 nM LanthaScreen Eu-Anti GST antibody (ThermoFisher PV5595) were added. After one hour incubation at 25° C., the plates were read on a PHERAstar FS plate reader (BMG Labtech). Ki values were determined.

Chain of active HPK1 (SignalChem M23-11G) (Q92918 1-346 limits assumed): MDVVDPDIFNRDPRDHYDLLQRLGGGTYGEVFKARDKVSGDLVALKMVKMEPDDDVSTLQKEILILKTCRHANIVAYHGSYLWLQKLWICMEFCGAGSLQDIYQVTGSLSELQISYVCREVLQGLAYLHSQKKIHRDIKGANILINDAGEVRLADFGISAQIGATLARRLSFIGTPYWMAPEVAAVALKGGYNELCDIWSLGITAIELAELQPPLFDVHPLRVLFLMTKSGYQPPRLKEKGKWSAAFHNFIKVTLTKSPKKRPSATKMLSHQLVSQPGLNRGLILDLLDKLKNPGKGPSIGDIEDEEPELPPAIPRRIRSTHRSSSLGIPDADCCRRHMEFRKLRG

pKi | Compound
≥ 7.00 | COc1cccc(F)c1-c1nccc(C(=O)Nc2ccc3c(ccn3-c3ccnn3C)c2N2C[C@@H](N)C[C@H]2CO)n1 [Example 46, N-(4-((2S,4S)-4-Amino-2-(hydroxymethyl)pyrrolidin-1-yl)-1-(1-methyl-1H-pyrazol-5-yl)-1H-indol-5-yl)-2-(2-fluoro-6-methoxyphenyl)pyrimidine-4-carboxamide]
≥ 7.00 | COc1cccc(F)c1-c1nccc(C(=O)Nc2ccc3c(ccn3-c3cccc(F)c3C#N)c2N2C[C@@H](N)C[C@H]2CO)n1 [Example 47, N-(4-((2S,4S)-4-Amino-2-(hydroxymethyl)pyrrolidin-1-yl)-1-(2-cyano-3-fluorophenyl)-1H-indol-5-yl)-2-(2-fluoro-6-methoxyphenyl)pyrimidine-4-carboxamide]
